Broadly, the IC50 is the concentration that gives 50% inhibition.

Bounds are passed on as bounds.

The target in this test is bovine cardiac myofibrils (full-length cardiac myosin ATPase in the native sarcomere) (Bos taurus (Bovine), UniProt Q9BE39). The test can be described thus: Skinned bovine cardiac myofibril ATPase assay (PK/LDH-coupled). As to conditions: Ca2+ activating to 75% of maximal rate; for CDMF75 IC15: concentration giving 15% inhibition; for IC50: read-out: CDMF75 IC50. It counts as biochemical. In outline:
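Inhibition of steady-state ATPase read at 340 nm through a PK/LDH-coupled NADH system (0.5 mM NADH, 1.5 mM PEP). Detergent-skinned bovine cardiac myofibrils, 1 mg/mL, were tested at pH 6.8 in PIPES/MgCl2 with 50 μM ATP and calcium adjusted to give pCa50 or pCa75 activation.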

bovine cardiac myofibrils (full-length cardiac myosin ATPase in the native sarcomere), sequence (Q9BE39 whole entry): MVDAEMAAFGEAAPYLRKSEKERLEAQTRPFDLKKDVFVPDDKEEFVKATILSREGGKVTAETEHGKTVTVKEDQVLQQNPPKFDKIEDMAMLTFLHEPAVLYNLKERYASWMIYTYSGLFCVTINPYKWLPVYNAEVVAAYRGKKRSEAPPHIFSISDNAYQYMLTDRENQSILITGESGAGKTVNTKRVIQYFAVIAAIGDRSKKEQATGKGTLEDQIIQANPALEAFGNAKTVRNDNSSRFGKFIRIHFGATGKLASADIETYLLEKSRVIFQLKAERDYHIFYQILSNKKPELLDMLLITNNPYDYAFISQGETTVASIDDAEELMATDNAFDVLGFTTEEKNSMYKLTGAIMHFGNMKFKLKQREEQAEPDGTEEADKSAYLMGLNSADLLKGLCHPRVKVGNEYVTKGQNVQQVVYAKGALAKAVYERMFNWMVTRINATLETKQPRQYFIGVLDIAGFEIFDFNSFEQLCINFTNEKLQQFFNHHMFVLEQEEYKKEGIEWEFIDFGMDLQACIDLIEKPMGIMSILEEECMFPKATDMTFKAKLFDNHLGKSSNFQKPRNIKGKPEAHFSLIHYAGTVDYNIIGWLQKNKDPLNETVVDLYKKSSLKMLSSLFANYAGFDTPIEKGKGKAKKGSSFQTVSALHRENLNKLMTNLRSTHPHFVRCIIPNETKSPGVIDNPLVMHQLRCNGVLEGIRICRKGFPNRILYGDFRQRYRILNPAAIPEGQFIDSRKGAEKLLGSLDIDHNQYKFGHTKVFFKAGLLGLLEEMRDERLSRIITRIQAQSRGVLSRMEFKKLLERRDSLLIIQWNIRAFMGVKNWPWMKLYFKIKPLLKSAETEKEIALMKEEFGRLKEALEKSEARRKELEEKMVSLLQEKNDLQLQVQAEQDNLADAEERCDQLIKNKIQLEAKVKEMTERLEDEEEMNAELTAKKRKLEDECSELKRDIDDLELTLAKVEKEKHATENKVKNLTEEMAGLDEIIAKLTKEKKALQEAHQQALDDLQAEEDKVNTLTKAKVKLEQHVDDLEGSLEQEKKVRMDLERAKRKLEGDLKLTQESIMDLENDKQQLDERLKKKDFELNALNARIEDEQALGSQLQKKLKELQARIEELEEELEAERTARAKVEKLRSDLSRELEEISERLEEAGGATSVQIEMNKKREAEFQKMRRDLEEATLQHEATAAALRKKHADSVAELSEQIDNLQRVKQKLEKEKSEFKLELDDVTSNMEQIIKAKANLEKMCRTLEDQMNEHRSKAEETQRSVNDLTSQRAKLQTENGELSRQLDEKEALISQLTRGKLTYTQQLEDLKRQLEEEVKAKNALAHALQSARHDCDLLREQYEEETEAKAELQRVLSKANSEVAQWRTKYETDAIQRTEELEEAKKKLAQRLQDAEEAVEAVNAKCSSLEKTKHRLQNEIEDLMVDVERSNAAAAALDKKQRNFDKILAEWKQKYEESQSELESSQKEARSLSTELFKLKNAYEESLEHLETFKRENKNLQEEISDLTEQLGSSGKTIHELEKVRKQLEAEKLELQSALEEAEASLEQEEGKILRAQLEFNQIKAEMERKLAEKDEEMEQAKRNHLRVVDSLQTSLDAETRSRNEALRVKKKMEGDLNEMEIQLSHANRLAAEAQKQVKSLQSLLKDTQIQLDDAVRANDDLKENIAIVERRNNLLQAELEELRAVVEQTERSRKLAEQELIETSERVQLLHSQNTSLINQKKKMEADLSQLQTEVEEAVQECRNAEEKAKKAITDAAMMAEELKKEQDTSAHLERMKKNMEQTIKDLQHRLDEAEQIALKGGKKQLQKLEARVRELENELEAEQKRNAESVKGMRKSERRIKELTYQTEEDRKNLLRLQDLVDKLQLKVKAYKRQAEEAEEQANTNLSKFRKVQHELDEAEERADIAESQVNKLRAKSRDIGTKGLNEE
bovine cardiac myofibrils (full-length cardiac myosin ATPase in the native sarcomere), sequence (P85100 whole entry partner): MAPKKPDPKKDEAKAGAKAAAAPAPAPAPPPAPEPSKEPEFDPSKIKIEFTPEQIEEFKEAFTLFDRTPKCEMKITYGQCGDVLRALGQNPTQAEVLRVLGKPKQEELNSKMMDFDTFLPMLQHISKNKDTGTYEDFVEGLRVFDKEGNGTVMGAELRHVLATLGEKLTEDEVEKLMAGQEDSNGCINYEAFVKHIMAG
bovine cardiac myofibrils (full-length cardiac myosin ATPase in the native sarcomere), sequence (Q3SZE5 whole entry partner): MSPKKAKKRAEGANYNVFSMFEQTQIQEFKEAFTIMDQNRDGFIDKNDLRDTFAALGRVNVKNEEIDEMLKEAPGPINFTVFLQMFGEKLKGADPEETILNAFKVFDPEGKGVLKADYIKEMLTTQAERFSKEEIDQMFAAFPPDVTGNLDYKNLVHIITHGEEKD

In the case of `[2H]C([2H])([2H])c1nc(-c2ccc3c(c2)CC[C@H]3NC(=O)c2cn[nH]c2)no1` [Compound 491, (R)-N-(5-(5-(methyl-d3)-1,2,4-oxadiazol-3-yl)-2,3-dihydro-1H-inden-1-yl)-1H-pyrazole-4-carboxamide], the “CDMF75 IC15” value came out at 1000 nM and the half-maximal inhibitory concentration (IC50) was determined as 3700 nM.

`COCc1nc(-c2ccc3c(c2)CC[C@H]3NC(=O)c2cccc([C@@H](C)O)c2)no1` [Compound 729, 3-((R)-1-hydroxyethyl)-N-((R)-5-(5-(methoxymethyl)-1,2,4-oxadiazol-3-yl)-2,3-dihydro-1H-inden-1-yl)benzamide]: the “CDMF75 IC15” value came to 2600 nM and the IC50 was 13200 nM.

Consider `O=C(N[C@@H]1CCc2cc(-c3noc(C4CC4)n3)ccc21)OC1CCCC1` [Compound 328, cyclopentyl (R)-(5-(5-cyclopropyl-1,2,4-oxadiazol-3-yl)-2,3-dihydro-1H-inden-1-yl)carbamate], for which the “CDMF75 IC15” value is 1200 nM and the IC50 is > 39200 nM.

Take `CCc1nc(-c2ccc3c(c2)CC[C@H]3NC(=O)OCC2CN(C(=O)OC)C2)no1` [Compound 361, methyl (R)-3-((((5-(5-ethyl-1,2,4-oxadiazol-3-yl)-2,3-dihydro-1H-inden-1-yl)carbamoyl)oxy)methyl)azetidine-1-carboxylate]: the “CDMF75 IC15” value was determined as 23700 nM and the IC50 is > 39200 nM.

Take `COCc1nc(-c2ccc3c(c2)OC[C@H]3NC(=O)c2cccc([C@@H](C)O)c2)no1` [Compound 737, 3-((R)-1-hydroxyethyl)-N-((S)-6-(5-(methoxymethyl)-1,2,4-oxadiazol-3-yl)-2,3-dihydrobenzofuran-3-yl)benzamide]: the “CDMF75 IC15” value came to 2400 nM and the 50% inhibitory concentration (IC50) is 14900 nM.

For the molecule `COCc1nc(-c2ccc3c(c2)CC[C@H]3NC(=O)c2ccnc(C(F)F)c2)no1` [Compound 731, (R)-2-(difluoromethyl)-N-(5-(5-(methoxymethyl)-1,2,4-oxadiazol-3-yl)-2,3-dihydro-1H-inden-1-yl)isonicotinamide], the “CDMF75 IC15” value worked out at 1100 nM and the half-maximal inhibitory concentration (IC50) was 5300 nM.

For the molecule `CCc1nc(-c2ccc3c(c2)CC[C@H]3NC(=O)c2ccc(=O)[nH]c2)no1` [Compound 604, (R)-N-(5-(5-ethyl-1,2,4-oxadiazol-3-yl)-2,3-dihydro-1H-inden-1-yl)-6-oxo-1,6-dihydropyridine-3-carboxamide], the “CDMF75 IC15” value turned out to be 300 nM and the IC50 was found to be 900 nM.

For `Cn1nnc(C(=O)NC2COc3cc(-c4noc(C(F)F)n4)ccc32)n1` (stereo not shown) [Compound 197, N-(6-(5-(difluoromethyl)-1,2,4-oxadiazol-3-yl)-2,3-dihydrobenzofuran-3-yl)-2-methyl-2H-tetrazole-5-carboxamide], the “CDMF75 IC15” value came to 3200 nM and the half-maximal inhibitory concentration (IC50) worked out at 12400 nM.

As for `Cc1noc(-c2ccc3c(c2)OC[C@H]3NC(=O)c2nnn(C)n2)n1` [Compound 344, (S)-2-methyl-N-(6-(3-methyl-1,2,4-oxadiazol-5-yl)-2,3-dihydrobenzofuran-3-yl)-2H-tetrazole-5-carboxamide], the “CDMF75 IC15” value worked out at 8600 nM and the 50% inhibitory concentration (IC50) was > 39200 nM.

With `[2H]C([2H])([2H])c1noc(-c2ccc3c(c2)CC[C@H]3NC(=O)c2nnn(C)n2)n1` [Compound 272, (R)-2-methyl-N-(5-(3-(methyl-d3)-1,2,4-oxadiazol-5-yl)-2,3-dihydro-1H-inden-1-yl)-2H-tetrazole-5-carboxamide], the “CDMF75 IC15” value was 1200 nM and the IC50 was 4300 nM.

Take `Cc1nc(-c2ccc3c(c2)CC[C@H]3NC(=O)c2cnn(C)c2)no1` [Compound 66, (R)-1-methyl-N-(5-(5-methyl-1,2,4-oxadiazol-3-yl)-2,3-dihydro-1H-inden-1-yl)-1H-pyrazole-4-carboxamide]: the “CDMF75 IC15” value was 1200 nM and the half-inhibitory concentration (IC50) worked out at 4500 nM.

`CCc1nc(-c2ccc3c(c2)CC[C@H]3NC(=O)[C@@H]2CCC(=O)N2)no1` [Compound 337, (S)-N-((R)-5-(5-ethyl-1,2,4-oxadiazol-3-yl)-2,3-dihydro-1H-inden-1-yl)-5-oxopyrrolidine-2-carboxamide]: the “CDMF75 IC15” value was determined as 24700 nM and the IC50 is > 39200 nM.

Take `Cc1nn(C)cc1C(=O)N[C@@H]1CCc2cc(-c3noc(C4CC4)n3)ccc21` [Compound 154, (R)-N-(5-(5-cyclopropyl-1,2,4-oxadiazol-3-yl)-2,3-dihydro-1H-inden-1-yl)-1,3-dimethyl-1H-pyrazole-4-carboxamide]: the “CDMF75 IC15” value stood at 400 nM and the 50% inhibitory concentration (IC50) worked out at 1500 nM.

Turning to `O=C(N[C@@H]1COc2cc(-c3noc(C(F)F)n3)ccc21)c1ccnc(CO)c1` [Compound 710, (S)-N-(6-(5-(difluoromethyl)-1,2,4-oxadiazol-3-yl)-2,3-dihydrobenzofuran-3-yl)-2-(hydroxymethyl)isonicotinamide], the “CDMF75 IC15” value amounted to 400 nM and the IC50 came out at 1900 nM.

Turning to `Cc1ccnc(C(=O)NC2CCc3cc(-c4noc(C(F)F)n4)ccc32)c1` (stereo not shown) [Compound 67, N-(5-(5-(difluoromethyl)-1,2,4-oxadiazol-3-yl)-2,3-dihydro-1H-inden-1-yl)-4-methylpicolinamide], the “CDMF75 IC15” value was 900 nM and the half-maximal inhibitory concentration (IC50) turned out to be 4700 nM.

`Cc1nocc1C(=O)NC1CCc2cc(-c3noc(C(F)F)n3)ccc21` (stereo not shown) [Compound 129, N-(5-(5-(difluoromethyl)-1,2,4-oxadiazol-3-yl)-2,3-dihydro-1H-inden-1-yl)-3-methylisoxazole-4-carboxamide]: the “CDMF75 IC15” value came out at 500 nM and the concentration for half-maximal inhibition (IC50) was 1500 nM.

Consider `CCc1nc(-c2ccc3c(c2)CC[C@H]3NC(=O)N2CC[C@@H](O)C2)no1` [Compound 724, (R)-N-((R)-5-(5-ethyl-1,2,4-oxadiazol-3-yl)-2,3-dihydro-1H-inden-1-yl)-3-hydroxypyrrolidine-1-carboxamide], for which the “CDMF75 IC15” value came out at 1700 nM and the IC50 is 6800 nM.

With `CCc1nc(-c2ccc3c(c2)CC[C@H]3NC(=O)c2cnc(C)o2)no1` [Compound 385, (R)-N-(5-(5-ethyl-1,2,4-oxadiazol-3-yl)-2,3-dihydro-1H-inden-1-yl)-2-methyloxazole-5-carboxamide], the “CDMF75 IC15” value is 500 nM and the IC50 came to 1700 nM.

With `Cn1nccc1C(=O)N[C@@H]1CCc2cc(-c3ncccn3)ccc21` [Compound 366, (R)-1-methyl-N-(5-(pyrimidin-2-yl)-2,3-dihydro-1H-inden-1-yl)-1H-pyrazole-5-carboxamide], the “CDMF75 IC15” value amounted to 8600 nM and the IC50 is > 39200 nM.

Turning to `[2H]C([2H])([2H])c1nc(-c2ccc3c(c2)CC[C@H]3NC(=O)OC)no1` [Compound 308, methyl (R)-(5-(5-(methyl-d3)-1,2,4-oxadiazol-3-yl)-2,3-dihydro-1H-inden-1-yl)carbamate], the “CDMF75 IC15” value came to 700 nM and the IC50 came out at 2800 nM.

For `Cc1cc(-c2ccc3c(c2)CC[C@H]3NC(=O)c2nnn(C)n2)no1` [Compound 252, (R)-2-methyl-N-(5-(5-methylisoxazol-3-yl)-2,3-dihydro-1H-inden-1-yl)-2H-tetrazole-5-carboxamide], the “CDMF75 IC15” value was 400 nM and the 50% inhibitory concentration (IC50) turned out to be 1500 nM.

Regarding `CCc1nc(-c2ccc3c(c2)OC[C@H]3NC(=O)c2cc(C)no2)no1` [Compound 339, (S)-N-(6-(5-ethyl-1,2,4-oxadiazol-3-yl)-2,3-dihydrobenzofuran-3-yl)-3-methylisoxazole-5-carboxamide], the “CDMF75 IC15” value amounted to 400 nM and the IC50 was found to be 1200 nM.

As to `CC(C)c1nc(-c2ccc3c(c2)CC[C@H]3NC(=O)c2cn[nH]c2)no1` [Compound 488, (R)-N-(5-(5-isopropyl-1,2,4-oxadiazol-3-yl)-2,3-dihydro-1H-inden-1-yl)-1H-pyrazole-4-carboxamide], the “CDMF75 IC15” value came out at 1100 nM and the IC50 is 4300 nM.

Take `Cc1n[nH]cc1C(=O)N[C@@H]1CCc2cc(-c3noc(C(C)C)n3)ccc21` [Compound 396, (R)-N-(5-(5-isopropyl-1,2,4-oxadiazol-3-yl)-2,3-dihydro-1H-inden-1-yl)-3-methyl-1H-pyrazole-4-carboxamide]: the “CDMF75 IC15” value was found to be 400 nM and the half-inhibitory concentration (IC50) worked out at 1600 nM.

Take `CC(C)COC(=O)N[C@@H]1CCc2cc(-c3noc(C(F)F)n3)ccc21` [Compound 280, isobutyl (R)-(5-(5-(difluoromethyl)-1,2,4-oxadiazol-3-yl)-2,3-dihydro-1H-inden-1-yl)carbamate]: the “CDMF75 IC15” value came out at 700 nM and the 50% inhibitory concentration (IC50) is 2700 nM.

Regarding `O=C(N[C@@H]1CCc2cc(-c3noc(C(F)F)n3)ccc21)c1ccc(=O)n(CCO)c1` [Compound 656, (R)-N-(5-(5-(difluoromethyl)-1,2,4-oxadiazol-3-yl)-2,3-dihydro-1H-inden-1-yl)-1-(2-hydroxyethyl)-6-oxo-1,6-dihydropyridine-3-carboxamide], the “CDMF75 IC15” value was determined as 1900 nM and the IC50 stood at 8100 nM.

Take `Cn1nccc1C(=O)NC1CCc2cc(-c3noc(C(F)F)n3)ccc21` (stereo not shown) [Compound 35, N-(5-(5-(difluoromethyl)-1,2,4-oxadiazol-3-yl)-2,3-dihydro-1H-inden-1-yl)-1-methyl-1H-pyrazole-5-carboxamide]: the “CDMF75 IC15” value is 500 nM and the half-maximal inhibitory concentration (IC50) stood at 1600 nM.

For `CCc1nc(-c2ccc3c(c2)CC[C@H]3NC(=O)c2nnc(C)s2)no1` [Compound 619, (R)-N-(5-(5-ethyl-1,2,4-oxadiazol-3-yl)-2,3-dihydro-1H-inden-1-yl)-5-methyl-1,3,4-thiadiazole-2-carboxamide], the “CDMF75 IC15” value amounted to 600 nM and the IC50 is 2500 nM.

With `CCc1nc(-c2ccc3c(c2)CC[C@H]3NC(=O)c2ccncn2)no1` [Compound 630, (R)-N-(5-(5-ethyl-1,2,4-oxadiazol-3-yl)-2,3-dihydro-1H-inden-1-yl)pyrimidine-4-carboxamide], the “CDMF75 IC15” value was 500 nM and the IC50 was determined as 1800 nM.

Values taken from patent publication US12065436B2, “Cardiac sarcomere inhibitors” (Cytokinetics, Inc., priority 2018, dated 2024).
